Publication PMC7313537 (PLoS ONE, 2020)

What was measured:
[1] = target: AKT1 (Homo sapiens, UniProt P31749); assay: Enzyme selectivity panel; type: biochemical; conditions: 1 mM ATP
Method: (§3) The kinase assays were carried out at room temperature in HEPES 50 mM, pH 7.0, NaN3 0.02%, BSA 0.01%, Orthovanadate 0.1 mM, DTT 1 mM, MgCl2 10 mM in a final volume of 10 µL. Test compounds were transferred to the plate wells by ECHO liquid handler (Labcyte, San Jose, CA) with 0.5% dimethyl sulfoxide (DMSO) in the final assay. Peptide/kinase mixtures were diluted in the appropriate enzymatic buffer and 5µL of the mixture was added to a 384-well small volume black plate. Reactions were initiated by the addition of 5 µL ATP in reaction buffer, the final reaction mixture consisted of 500 nM peptide substrate, 1 mM ATP, and appropriate amount of specific kinase. […] The plates were then sealed and centrifuged at 1800 rpm for 2 minutes. […] Half maximal inhibitory concentration (IC50) determination was performed by fitting the curve of percent control activity versus the log of the compound concentration using the GraphPad Prism 6.0 software.

[2] = target: T1, DDR2 (Homo sapiens, UniProt Q16832); assay: Enzyme selectivity panel; type: biochemical; conditions: 1 mM ATP
T1 construct: purchased In-house HTRF panel (56 kinases) and PerkinElmer (161-kinase panel)
Method: as §3

[3] = target: EGFR (Homo sapiens, UniProt P00533); assay: Enzyme selectivity panel; type: biochemical; conditions: 1 mM ATP
Method: as §3

[4] = target: HIPK3 (Homo sapiens, UniProt Q9H422); assay: Enzyme selectivity panel; type: biochemical; conditions: 1 mM ATP
Method: as §3

[5] = target: IKKA (Homo sapiens, UniProt O15111); assay: Enzyme selectivity panel; type: biochemical; conditions: 1 mM ATP
IKKA, sequence (O15111 whole entry, species assumed): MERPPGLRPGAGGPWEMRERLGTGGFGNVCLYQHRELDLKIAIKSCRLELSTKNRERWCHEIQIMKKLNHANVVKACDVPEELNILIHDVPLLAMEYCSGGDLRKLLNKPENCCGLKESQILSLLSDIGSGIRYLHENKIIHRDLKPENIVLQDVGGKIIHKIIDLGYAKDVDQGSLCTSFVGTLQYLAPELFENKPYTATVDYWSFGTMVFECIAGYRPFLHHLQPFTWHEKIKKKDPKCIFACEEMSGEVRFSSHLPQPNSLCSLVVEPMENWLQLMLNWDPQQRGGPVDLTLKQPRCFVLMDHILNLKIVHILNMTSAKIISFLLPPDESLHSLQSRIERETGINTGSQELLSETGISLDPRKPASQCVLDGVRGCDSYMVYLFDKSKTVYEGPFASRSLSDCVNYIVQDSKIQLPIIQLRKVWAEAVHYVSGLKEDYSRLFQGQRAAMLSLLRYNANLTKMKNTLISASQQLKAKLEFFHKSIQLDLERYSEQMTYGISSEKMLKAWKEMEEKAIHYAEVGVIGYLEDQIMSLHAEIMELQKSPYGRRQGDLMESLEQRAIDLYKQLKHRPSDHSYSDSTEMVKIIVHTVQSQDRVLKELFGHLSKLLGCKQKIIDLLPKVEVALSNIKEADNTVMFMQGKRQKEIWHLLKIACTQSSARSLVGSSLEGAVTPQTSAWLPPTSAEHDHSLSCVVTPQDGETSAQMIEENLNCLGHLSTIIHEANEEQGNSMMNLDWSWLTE
Method: as §3

[6] = target: LRRK2 (Homo sapiens, UniProt Q5S007); assay: Enzyme selectivity panel; type: biochemical; conditions: 1 mM ATP
Method: as §3

[7] = target: MAP3K8 (Homo sapiens, UniProt P41279); assay: Enzyme selectivity panel; type: biochemical; conditions: 1 mM ATP
MAP3K8, sequence (P41279 whole entry, species assumed): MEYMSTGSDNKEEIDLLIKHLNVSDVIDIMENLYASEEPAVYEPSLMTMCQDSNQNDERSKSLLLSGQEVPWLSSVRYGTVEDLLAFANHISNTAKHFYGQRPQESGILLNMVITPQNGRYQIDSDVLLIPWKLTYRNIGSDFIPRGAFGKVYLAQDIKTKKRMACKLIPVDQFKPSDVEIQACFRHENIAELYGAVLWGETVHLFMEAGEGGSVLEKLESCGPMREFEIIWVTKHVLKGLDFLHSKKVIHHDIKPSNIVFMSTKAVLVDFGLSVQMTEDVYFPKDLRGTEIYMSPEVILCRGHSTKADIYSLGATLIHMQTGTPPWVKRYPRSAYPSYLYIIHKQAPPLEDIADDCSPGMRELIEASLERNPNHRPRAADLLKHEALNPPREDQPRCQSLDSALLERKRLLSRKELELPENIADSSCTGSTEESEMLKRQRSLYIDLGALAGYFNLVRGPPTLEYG
Method: as §3

[8] = target: MAPKAPK2 (Homo sapiens, UniProt P49137); assay: Enzyme selectivity panel; type: biochemical; conditions: 1 mM ATP
MAPKAPK2, sequence (P49137 whole entry, species assumed): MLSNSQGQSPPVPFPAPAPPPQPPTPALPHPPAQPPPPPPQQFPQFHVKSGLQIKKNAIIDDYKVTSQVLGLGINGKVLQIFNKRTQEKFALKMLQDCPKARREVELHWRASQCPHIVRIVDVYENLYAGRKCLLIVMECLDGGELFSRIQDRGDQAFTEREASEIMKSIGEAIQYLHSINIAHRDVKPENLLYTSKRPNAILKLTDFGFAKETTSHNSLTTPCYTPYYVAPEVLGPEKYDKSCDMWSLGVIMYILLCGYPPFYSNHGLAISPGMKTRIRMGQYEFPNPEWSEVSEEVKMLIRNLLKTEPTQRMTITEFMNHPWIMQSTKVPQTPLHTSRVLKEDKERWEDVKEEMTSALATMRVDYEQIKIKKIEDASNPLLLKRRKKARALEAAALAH
Method: as §3

[9] = target: MSSK1 (Homo sapiens, UniProt Q9UPE1); assay: Enzyme selectivity panel; type: biochemical; conditions: 1 mM ATP
Method: as §3

[10] = target: T2, PHKG2 (Homo sapiens, UniProt P15735); assay: Enzyme selectivity panel; type: biochemical; conditions: 1 mM ATP
T2 construct: purchased In-house HTRF panel (56 kinases) and PerkinElmer (161-kinase panel)
T2 sequence (P15735 whole entry, species assumed): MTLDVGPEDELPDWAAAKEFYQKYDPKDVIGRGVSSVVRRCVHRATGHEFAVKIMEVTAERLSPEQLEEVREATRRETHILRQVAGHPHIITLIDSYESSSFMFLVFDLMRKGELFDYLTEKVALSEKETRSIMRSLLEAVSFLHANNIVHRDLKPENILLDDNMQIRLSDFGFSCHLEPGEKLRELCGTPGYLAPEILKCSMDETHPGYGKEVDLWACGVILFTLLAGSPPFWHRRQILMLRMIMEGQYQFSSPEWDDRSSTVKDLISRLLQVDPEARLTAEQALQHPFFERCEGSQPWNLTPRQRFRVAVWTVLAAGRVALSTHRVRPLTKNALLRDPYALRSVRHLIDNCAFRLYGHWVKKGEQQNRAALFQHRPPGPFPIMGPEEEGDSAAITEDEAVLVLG
Method: as §3

[11] = target: SGK3 (Homo sapiens, UniProt Q96BR1); assay: Enzyme selectivity panel; type: biochemical; conditions: 1 mM ATP
SGK3, sequence (Q96BR1 whole entry, species assumed): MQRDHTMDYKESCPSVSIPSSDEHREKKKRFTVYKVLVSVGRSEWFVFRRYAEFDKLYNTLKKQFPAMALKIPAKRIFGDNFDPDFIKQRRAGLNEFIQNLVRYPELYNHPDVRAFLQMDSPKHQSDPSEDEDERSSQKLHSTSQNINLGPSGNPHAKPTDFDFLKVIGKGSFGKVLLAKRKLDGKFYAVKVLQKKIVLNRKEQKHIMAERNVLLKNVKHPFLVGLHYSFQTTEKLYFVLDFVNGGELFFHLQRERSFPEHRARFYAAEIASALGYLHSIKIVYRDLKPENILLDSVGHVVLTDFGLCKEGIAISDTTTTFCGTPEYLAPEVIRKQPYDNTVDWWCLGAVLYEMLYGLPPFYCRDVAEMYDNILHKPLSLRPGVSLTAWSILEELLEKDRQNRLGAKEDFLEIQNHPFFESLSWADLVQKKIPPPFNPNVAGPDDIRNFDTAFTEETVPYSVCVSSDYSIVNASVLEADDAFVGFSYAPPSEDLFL
Method: as §3

[12] = target: TGFBR1 (Homo sapiens, UniProt P36897); assay: Enzyme selectivity panel; type: biochemical; conditions: 1 mM ATP
TGFBR1, sequence (P36897 34-503, species assumed): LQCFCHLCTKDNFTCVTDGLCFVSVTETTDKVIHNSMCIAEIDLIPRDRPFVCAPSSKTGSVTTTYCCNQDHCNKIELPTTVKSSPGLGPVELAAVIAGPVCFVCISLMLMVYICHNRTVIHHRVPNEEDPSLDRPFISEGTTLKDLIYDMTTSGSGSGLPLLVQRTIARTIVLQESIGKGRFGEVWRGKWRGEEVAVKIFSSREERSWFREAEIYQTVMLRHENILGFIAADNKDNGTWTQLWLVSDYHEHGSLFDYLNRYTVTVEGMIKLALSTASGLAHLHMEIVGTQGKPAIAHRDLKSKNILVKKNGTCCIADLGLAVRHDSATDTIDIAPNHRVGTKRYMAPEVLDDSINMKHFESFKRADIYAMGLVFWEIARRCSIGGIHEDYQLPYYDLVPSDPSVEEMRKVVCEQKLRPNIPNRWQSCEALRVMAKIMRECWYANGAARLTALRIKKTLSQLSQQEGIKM
Method: as §3

[13] = test system: b-FGF induced growth of human umbilical vein endothelial cells (HUVEC); assay: HUVEC proliferation stimulated with b-FGF; type: cell-based; conditions: read-out: IC50 for b-FGF induced growth
[14] = test system: VEGF-induced growth of human umbilical vein endothelial cells (HUVEC); assay: HUVEC proliferation stimulated with VEGF; type: cell-based
Source text: S2 Figure. […] Directly. An assay was developed to evaluate the proliferation of human umbilical vein endothelial cells (HUVEC) when stimulated with basic FGF (b-FGF) or VEGF.

[15] = test system: phospho-FRS2 and phospho-ERK in RT-4 cells (FGFR3-TACC3); assay: Western blot of FGFR pathway markers; type: cell-based; conditions: 2 hours
Source text: All antibodies were purchased from commercial sources as follows: antibodies against FGFR1 (monoclonal [rabbit], catalogue no. 9740, Antibody Registry Identifier AB_11178519), ERK (monoclonal [mouse], 9107, AB_10695739), phospho-p42/44 ERK1/2 (monoclonal [rabbit], 4370, AB_2315112), phospho-STAT5 (Tyr694; monoclonal [rabbit], 4322, AB_10544692), and STAT5 (monoclonal [rabbit], 9358, AB_659905) were from Cell Signaling Technologies (Danvers, MA) and used at 1:1000 dilution; FGFR3 (monoclonal [rabbit], AB133644, AB_2810262) and FRS2 (polyclonal [rabbit], AB10425, AB_2247176) were from Abcam (Cambridge, UK) and used at 1:2000; and phospho-FRS2 (Tyr436; polyclonal [rabbit], AF5126, AB_2106234) was from R&D Systems (Minneapolis, MN) and used at 1 μg/mL. The pFGFR2 enzyme-linked immunosorbent assay (ELISA) kit was purchased from R&D Systems and ELISA was performed per manufacturer protocol.
Original Western blot images are shown in S1 File (S1 Raw images).

[16] = test system: TF1-BCR-ABL; assay: Cell viability assay (CellTiter-Glo); type: cell-based; conditions: AML/recombinant; lacking FGFR alterations
[17] = Intrinsic clearance in liver microsomes; type: in vitro ADME
Method: Aliquots were taken at 0, 10, 20, and 30 minutes and denatured with methanol. After centrifugation to remove the denatured proteins, the resulting supernatants were analyzed by LC/MS

[18] = target: T3, hERG potassium current (Homo sapiens, UniProt Q12809); assay: hERG potassium current (ChanTest); type: cell-based; conditions: estimated; precise IC50 not calculated due to compound insolubility; data provided by ChanTest; read-out: IC50 for the inhibitory effect on hERG potassium current
T3 construct: ChanTest Corporation, Cleveland, OH
T3 sequence (Q12809 whole entry): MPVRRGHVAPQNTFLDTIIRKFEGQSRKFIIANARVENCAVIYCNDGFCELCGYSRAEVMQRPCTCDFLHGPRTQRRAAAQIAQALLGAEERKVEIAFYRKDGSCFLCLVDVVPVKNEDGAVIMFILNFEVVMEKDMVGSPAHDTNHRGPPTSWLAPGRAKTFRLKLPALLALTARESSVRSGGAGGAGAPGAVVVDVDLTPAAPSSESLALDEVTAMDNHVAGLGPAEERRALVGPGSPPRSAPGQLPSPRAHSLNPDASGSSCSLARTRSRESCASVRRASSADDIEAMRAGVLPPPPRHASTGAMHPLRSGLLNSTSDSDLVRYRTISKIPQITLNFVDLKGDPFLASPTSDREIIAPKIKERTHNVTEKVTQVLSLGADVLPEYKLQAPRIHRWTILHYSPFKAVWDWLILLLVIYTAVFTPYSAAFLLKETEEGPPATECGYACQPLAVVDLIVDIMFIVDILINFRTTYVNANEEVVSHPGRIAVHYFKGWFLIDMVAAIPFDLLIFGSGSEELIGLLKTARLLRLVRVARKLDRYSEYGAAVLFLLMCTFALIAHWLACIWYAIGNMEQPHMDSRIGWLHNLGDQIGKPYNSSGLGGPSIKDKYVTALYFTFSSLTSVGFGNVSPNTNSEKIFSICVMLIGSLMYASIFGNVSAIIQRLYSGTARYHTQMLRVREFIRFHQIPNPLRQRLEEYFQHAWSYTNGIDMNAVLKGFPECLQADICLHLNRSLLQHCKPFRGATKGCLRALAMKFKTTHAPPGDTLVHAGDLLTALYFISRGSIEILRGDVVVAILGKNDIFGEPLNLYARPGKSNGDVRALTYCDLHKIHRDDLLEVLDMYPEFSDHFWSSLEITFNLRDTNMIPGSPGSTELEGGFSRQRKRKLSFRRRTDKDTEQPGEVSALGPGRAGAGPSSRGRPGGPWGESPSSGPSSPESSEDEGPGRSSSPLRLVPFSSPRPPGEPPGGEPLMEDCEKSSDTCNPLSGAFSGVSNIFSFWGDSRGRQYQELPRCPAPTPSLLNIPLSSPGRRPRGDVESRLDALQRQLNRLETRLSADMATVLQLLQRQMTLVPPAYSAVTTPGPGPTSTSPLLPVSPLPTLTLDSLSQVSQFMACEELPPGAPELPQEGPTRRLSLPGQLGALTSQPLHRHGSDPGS

[19] = Pharmacokinetic analyses; type: in vivo, Sprague Dawley rats; conditions: male rat
Method: (§1) The i.v. formulation in rats was 5% dimethylacetamide (DMAC) and 25% sulfobutyl ether β-cyclodextrin in acidified saline (pH 3). The i.v. formulation in dogs and monkeys was 5% DMAC and 20% sulfobutyl ether β-cyclodextrin in saline. The oral formulation in all species was 5% DMAC in 0.5% methylcellulose aqueous solution. For rats, blood samples were collected at predose, 5 (i.v. dosing only), 15, and 30 minutes, and 1, 2, 4, 6, 8, and 24 hours. For dogs, blood samples were collected at predose, 2.5 and 5 (i.v. dosing only), 15, and 30 minutes, and 1, 2, 3, 4, 6, 8, 12, and 24 hours postdose. For monkeys, blood samples were collected at predose, 5 and 10 (i.v. dosing only), 15, and 30 minutes, and 1, 2, 3, 4, 6, 8, 12, 16, and 24 hours postdose. Collected blood samples were processed to extract plasma by centrifugation and stored at −20 °C until analysis.
(§2) The plasma was protein precipitated and the diluted supernatant was analyzed using LC/MS/MS. A standard curve was prepared in plasma from 1 to 5,000 nM and processed in the same manner as the samples. The pharmacokinetic parameters were determined using WinNonLin 6.3.

[20] = Pharmacokinetic analyses; type: in vivo, beagle dogs; conditions: male dog
Method: as §1, §2

[21] = Preclinical safety studies; type: in vivo
[22] = test system: phospho-FGFR3 in RT-112 cells; conditions: proximity ligation assay
[23] = cited from earlier work
[24] = Sprague Dawley, plasma, oral 2 mg/kg
[25] = intravenous 1 mg/kg, % of hepatic blood flow

T1 sequence (Q16832 22-855, species assumed): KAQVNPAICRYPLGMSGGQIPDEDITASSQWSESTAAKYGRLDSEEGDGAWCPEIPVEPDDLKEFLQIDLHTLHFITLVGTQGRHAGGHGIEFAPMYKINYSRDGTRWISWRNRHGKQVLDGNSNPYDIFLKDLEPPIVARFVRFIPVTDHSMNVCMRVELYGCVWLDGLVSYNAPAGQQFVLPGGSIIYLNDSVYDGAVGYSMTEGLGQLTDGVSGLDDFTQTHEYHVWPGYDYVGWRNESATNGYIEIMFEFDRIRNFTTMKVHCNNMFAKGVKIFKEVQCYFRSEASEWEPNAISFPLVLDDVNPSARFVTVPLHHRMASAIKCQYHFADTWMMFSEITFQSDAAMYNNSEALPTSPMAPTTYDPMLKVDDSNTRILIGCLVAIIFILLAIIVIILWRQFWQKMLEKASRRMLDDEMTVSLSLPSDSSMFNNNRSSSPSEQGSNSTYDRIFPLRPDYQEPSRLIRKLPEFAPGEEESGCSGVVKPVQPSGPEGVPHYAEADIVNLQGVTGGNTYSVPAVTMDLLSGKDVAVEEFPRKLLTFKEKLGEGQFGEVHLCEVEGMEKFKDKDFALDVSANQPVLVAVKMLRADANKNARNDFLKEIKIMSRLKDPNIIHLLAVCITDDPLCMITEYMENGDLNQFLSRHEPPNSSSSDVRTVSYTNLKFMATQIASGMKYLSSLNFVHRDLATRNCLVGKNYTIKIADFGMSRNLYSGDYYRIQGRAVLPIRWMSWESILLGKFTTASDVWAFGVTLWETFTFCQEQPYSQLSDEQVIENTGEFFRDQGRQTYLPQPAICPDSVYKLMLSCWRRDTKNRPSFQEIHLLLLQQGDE

SMILES: CCN1C(=O)N(c2c(F)c(OC)cc(OC)c2F)Cc2cnc3[nH]c(CN4CCOCC4)cc3c21 [INCB054828, pemigatinib]
- IC50 [1]: > 10 µM
- IC50 [2]: > 10 µM
- IC50 [3]: > 10 µM
- IC50 [4]: > 10 µM
- IC50 [5]: > 10 µM
- IC50 [6]: > 10 µM
- IC50 [7]: > 10 µM
- IC50 [8]: > 10 µM
- IC50 [9]: > 10 µM
- IC50 [10]: > 10 µM
- IC50 [11]: > 10 µM
- IC50 [12]: > 10 µM
- IC50 [13]: 0.0082 µM
- IC50 [14]: 0.801 µM
- levels of phospho-FRS2 and phospho-ERK [15]: strongly suppresses
- GI50 [16]: > 5 µM
- Intrinsic clearance ([17]; human liver microsomes): moderate metabolic stability
- CLint scaled at 1 μM ([17]; human, pH 7.4): 13.3 mL/min/kg
- IC50 [18]: > 8 µM
- clearance ([19]; Sprague Dawley, plasma, intravenous 1 mg/kg): 17.2 mL/min/kg
- Vd ([19]; Sprague Dawley, plasma, intravenous 1 mg/kg, read-out: Vss): 1.85 L/kg
- half-life ([19]; Sprague Dawley, plasma, intravenous 1 mg/kg, read-out: t½ (converted)): 4 h
- Cmax [19, 24]: 2260 nM
- bioavailability [19, 24]: > 100%
- Hepatic ER [19, 25]: 31%
- %F ([19]; oral 2 mg/kg): complete
- AUC ([19]; oral 2 mg/kg): 7.67 µM·h
- clearance ([20]; beagle, plasma, intravenous 1 mg/kg): 3.05 mL/min/kg
- Cmax ([20]; beagle, plasma, oral 2 mg/kg): 1770 nM
- bioavailability ([20]; beagle, plasma, oral 2 mg/kg): 98%
- Vss ([20]; intravenous 1 mg/kg): 3.49 L/kg
- t½ ([20]; intravenous 1 mg/kg): 15.7 h
- Hepatic ER [20, 25]: 10%
- AUC ([20]; oral 2 mg/kg): 22.1 µM·h
- liver toxicity and changes in blood pressure [21]: not observed
- potent inhibition of FGFR3 (phospho-FGFR3), concentration [22]: < 10 nM
- safety profile in phase 1 clinical trials [23]: favorable safety profile
- pharmacokinetic data in patients ([23]; phase 1 dose-escalation study ref 33): low clearance and dose-linearity
